The values that follow are results of earlier work, collected in patent US20210393522A1, “COMPOSITIONS FOR SOLUBILIZING WATER-INSOLUBLE ACTIVE INGREDIENTS” (priority 2020, published 2021).

Molecules are shown by their SMILES.

The conditions of series [1]: oil-based delivery systems; humans; Agurell 1981.

Take `C=C(C)[C@@H]1CCC(C)=C[C@H]1c1c(O)cc(CCCCC)cc1O` [CBD, cannabidiol]: the “Share of total CBD absorbed” value in series [1] was 4%.

Turning to `CC(C)(Sc1cc(C(C)(C)C)c(O)c(C(C)(C)C)c1)Sc1cc(C(C)(C)C)c(O)c(C(C)(C)C)c1` [Probucol, 4,4′-[Propane-2,2-diylbis(thio)]bis(2,6-di-tert-butylphenol)], the Solubility in water is given as 5 nanograms per ml.
